ChEMBL document CHEMBL5518174 (Eur J Med Chem, 2024)
Active and inactive are the calls of the source. The rule behind the calls is not given here.

How the values were obtained:
Histone deacetylase 1 = Histone deacetylase 1 (Homo sapiens, UniProt Q13547); experiment: Inhibition of recombinant human HDAC1 using acetylated luminogenic substrate incubated for 10 mins by ultra-glo recombinant firefly luciferase based luminescence assay
Histone deacetylase 2 = Histone deacetylase 2 (Homo sapiens, UniProt Q92769); experiment: Inhibition of recombinant human HDAC2 using acetylated luminogenic substrate incubated for 10 mins by ultra-glo recombinant firefly luciferase based luminescence assay
Chain of Histone deacetylase 2 (Q92769 whole entry): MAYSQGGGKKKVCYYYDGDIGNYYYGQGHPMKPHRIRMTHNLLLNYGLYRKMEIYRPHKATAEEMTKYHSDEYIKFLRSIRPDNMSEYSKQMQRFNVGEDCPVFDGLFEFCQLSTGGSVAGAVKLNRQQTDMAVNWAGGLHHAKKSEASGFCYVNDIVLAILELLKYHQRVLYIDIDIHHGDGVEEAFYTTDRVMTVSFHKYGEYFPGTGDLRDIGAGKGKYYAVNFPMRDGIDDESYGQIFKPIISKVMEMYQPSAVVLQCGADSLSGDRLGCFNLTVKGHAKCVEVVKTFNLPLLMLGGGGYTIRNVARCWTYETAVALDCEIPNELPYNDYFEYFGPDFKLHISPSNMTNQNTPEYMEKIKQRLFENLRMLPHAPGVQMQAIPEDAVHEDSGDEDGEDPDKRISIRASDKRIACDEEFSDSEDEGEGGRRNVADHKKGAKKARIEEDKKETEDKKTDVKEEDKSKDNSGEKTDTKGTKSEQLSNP

Histone deacetylase 3 = Histone deacetylase 3 (Homo sapiens, UniProt O15379); experiment: Inhibition of recombinant human HDAC3 using acetylated luminogenic substrate incubated for 10 mins by ultra-glo recombinant firefly luciferase based luminescence assay
Chain of Histone deacetylase 3 (O15379 whole entry): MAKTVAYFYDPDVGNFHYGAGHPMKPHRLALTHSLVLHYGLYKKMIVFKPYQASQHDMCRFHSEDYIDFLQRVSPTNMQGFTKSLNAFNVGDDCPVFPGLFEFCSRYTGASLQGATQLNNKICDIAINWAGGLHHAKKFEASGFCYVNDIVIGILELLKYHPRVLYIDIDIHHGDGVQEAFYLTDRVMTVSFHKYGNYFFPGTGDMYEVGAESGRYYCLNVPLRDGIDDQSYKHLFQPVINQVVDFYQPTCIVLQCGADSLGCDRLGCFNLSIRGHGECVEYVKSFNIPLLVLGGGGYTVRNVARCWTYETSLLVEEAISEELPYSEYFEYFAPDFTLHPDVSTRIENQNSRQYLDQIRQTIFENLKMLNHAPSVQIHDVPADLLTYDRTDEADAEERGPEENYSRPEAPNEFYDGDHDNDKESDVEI

Histone deacetylase 7 = biological target: T1, Histone deacetylase 7 (Homo sapiens, UniProt Q8WUI4); experiment: Inhibition of recombinant human HDAC7 using acetylated luminogenic substrate incubated for 10 mins by ultra-glo recombinant firefly luciferase based luminescence assay
T1 sequence (Q8WUI4 whole entry): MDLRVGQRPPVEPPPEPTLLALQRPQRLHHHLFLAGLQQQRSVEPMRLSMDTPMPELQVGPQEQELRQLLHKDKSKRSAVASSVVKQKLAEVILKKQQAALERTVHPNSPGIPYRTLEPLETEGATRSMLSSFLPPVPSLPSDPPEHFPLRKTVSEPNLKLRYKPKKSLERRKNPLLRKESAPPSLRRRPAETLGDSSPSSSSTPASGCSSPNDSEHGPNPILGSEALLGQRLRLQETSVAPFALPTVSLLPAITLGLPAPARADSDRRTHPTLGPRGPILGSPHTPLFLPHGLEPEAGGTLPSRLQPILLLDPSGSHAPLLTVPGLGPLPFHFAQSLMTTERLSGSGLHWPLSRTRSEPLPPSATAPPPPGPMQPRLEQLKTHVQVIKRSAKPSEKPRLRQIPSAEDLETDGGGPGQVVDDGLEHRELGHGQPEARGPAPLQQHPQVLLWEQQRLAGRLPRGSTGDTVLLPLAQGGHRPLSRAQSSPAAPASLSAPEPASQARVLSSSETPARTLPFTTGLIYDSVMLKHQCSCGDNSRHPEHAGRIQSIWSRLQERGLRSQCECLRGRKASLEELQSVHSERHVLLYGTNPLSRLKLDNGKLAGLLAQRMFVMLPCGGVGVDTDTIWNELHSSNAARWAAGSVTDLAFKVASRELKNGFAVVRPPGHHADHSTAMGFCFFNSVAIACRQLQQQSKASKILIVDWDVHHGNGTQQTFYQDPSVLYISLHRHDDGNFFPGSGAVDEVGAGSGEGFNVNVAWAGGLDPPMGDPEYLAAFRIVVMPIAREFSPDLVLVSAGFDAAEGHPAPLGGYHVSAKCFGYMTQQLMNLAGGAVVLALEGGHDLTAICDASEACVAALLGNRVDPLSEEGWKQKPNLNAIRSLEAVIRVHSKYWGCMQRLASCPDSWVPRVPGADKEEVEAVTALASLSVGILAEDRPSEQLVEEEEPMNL

[1] = biological target: T2, Polyamine deacetylase HDAC10 (Homo sapiens, UniProt Q969S8); experiment: Inhibition of recombinant human HDAC10 using acetylated luminogenic substrate incubated for 10 mins by ultra-glo recombinant firefly luciferase based luminescence assay
T2 sequence (Q969S8 whole entry): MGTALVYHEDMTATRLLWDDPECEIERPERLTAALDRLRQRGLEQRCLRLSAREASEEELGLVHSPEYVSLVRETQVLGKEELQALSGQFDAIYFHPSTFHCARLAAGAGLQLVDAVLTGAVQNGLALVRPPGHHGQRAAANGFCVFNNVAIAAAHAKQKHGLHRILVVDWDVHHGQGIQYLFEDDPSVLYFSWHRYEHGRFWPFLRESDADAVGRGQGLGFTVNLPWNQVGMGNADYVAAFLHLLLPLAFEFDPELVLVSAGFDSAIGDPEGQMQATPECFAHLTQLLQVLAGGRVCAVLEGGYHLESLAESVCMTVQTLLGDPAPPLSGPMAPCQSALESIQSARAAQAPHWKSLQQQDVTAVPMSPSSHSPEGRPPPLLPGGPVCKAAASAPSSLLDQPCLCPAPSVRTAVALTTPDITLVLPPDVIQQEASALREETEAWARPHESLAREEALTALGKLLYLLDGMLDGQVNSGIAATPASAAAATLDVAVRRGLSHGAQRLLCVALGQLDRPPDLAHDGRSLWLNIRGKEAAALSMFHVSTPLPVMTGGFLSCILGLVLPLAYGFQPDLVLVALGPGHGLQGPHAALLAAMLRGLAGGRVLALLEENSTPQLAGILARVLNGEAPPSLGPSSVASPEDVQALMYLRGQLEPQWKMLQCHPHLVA

[2] = Downregulation of HDAC1 protein expression in human NCI-H1975 cells assessed as fold change at 0.1 uM incubated for 24 hrs by immunoblotting analysis (reference value: 1); type: functional
[3] = Downregulation of HDAC1 protein expression in human MDA-MB-231 cells assessed as fold change at 0.1 uM incubated for 24 hrs by immunoblotting analysis (reference value: 1); type: functional
[4] = Downregulation of HDAC2 protein expression in human NCI-H1975 cells assessed as fold change at 0.1 uM incubated for 24 hrs by immunoblotting analysis (reference value: 1); type: functional
[5] = Effect on HDAC2 protein expression in human MDA-MB-231 cells assessed as fold change at 0.05 uM incubated for 24 hrs by immunoblotting analysis (reference value: 1); type: functional
[6] = Downregulation of HDAC8 protein expression in human NCI-H1975 cells assessed as fold change at 0.1 uM incubated for 24 hrs by immunoblotting analysis (reference value: 1); type: functional
[7] = Effect on HDAC4 protein expression in human NCI-H1975 cells assessed as fold change at 0.05 uM incubated for 24 hrs by immunoblotting analysis (reference value: 1); type: functional
[8] = Effect on HDAC5 protein expression in human NCI-H1975 cells assessed as fold change at 0.1 uM incubated for 24 hrs by immunoblotting analysis (reference value: 1); type: functional
[9] = Effect on HDAC11 protein expression in human NCI-H1975 cells assessed as fold change at 0.1 uM incubated for 24 hrs by immunoblotting analysis (reference value: 1); type: functional
NCI-H1975 = experiment: Antitumor activity against human NCI-H1975 cells xenografted in athymic nude BALB/c mouse assessed as cell apoptosis in tumor region at 6 mg/kg, ip administered 5 times a week for 3 weeks and measured on day 22 by TUNEL assay; type: functional, organism-based; conditions: time 22.0 day
[10] = Toxicity in athymic nude BALB/c mouse xenografted with human MDA-MB-231 cells assessed as effect on ALT level in serum at 3 mg/kg, ip administered 5 times a week for 7 weeks; type: organism-based; conditions: in vivo, 1176 h
[11] = Toxicity in athymic nude BALB/c mouse xenografted with human MDA-MB-231 cells assessed as effect on creatinine level in serum at 3 mg/kg, ip administered 5 times a week for 7 weeks; type: organism-based; conditions: in vivo, 1176 h

Chain of Histone deacetylase 1 (Q13547 whole entry): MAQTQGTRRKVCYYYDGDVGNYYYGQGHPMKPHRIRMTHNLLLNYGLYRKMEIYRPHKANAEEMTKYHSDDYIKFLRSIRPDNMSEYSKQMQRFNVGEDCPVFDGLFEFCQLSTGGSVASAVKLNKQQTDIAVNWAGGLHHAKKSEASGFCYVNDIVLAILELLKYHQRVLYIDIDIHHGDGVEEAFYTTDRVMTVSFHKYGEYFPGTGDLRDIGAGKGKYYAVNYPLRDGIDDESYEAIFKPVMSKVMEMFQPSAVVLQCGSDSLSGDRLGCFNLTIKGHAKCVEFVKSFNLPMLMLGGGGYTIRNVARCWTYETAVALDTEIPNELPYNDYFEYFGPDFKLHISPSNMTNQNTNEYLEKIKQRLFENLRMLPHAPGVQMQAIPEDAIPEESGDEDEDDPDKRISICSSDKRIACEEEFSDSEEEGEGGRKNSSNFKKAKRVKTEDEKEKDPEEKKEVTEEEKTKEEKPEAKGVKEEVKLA

Compound: CCOc1ccc(-c2nc(C(=O)NCc3ccc(C(=O)NO)cc3)c3[nH]c(=O)n(-c4cccnc4OC)c3n2)cn1
- IC50 (Histone deacetylase 1): 0.0051 µM
- IC50 (Histone deacetylase 2): 0.0115 µM
- IC50 (Histone deacetylase 3): 0.0088 µM
- IC50 (Histone deacetylase 7): > 1 µM
- IC50 [1]: 0.0189 µM
- fold change (FC) [2]: 0.95
- fold change (FC) [3]: 0.88
- fold change (FC) [4]: 0.69
- fold change (FC) [5]: 1.18
- fold change (FC) [6]: 0.46
- fold change (FC) [7]: 1.33
- fold change (FC) [8]: 1.53
- fold change (FC) [9]: 1.85
- Activity (NCI-H1975): Active
- Activity [10]: Non-Toxic
- Activity [11]: Non-Toxic
